SMILES strings stand for the structures. Where a SMILES comes first, the peptide text is derived from it. Bridges are numbered along the chain shown (N, C = ends). [ ]: non-standard residue; d: D form. S5 = C=CCCC[C@](C)(N)C(=O)O A value given as a limit tells only on which side of the number the result lay.

For this experiment, the system named is Molt-4 cell line. It counts as cell-based. Particulars: 48 h. The procedure: Molt-4 cell line (ATCC catalog #CRL-1582) was grown in specific serum-supplemented media (RPMI-1640, Invitrogen catalog #72400) as recommended by ATCC. A day prior to the initiation of the study, cells were split at optimal cell density (2×10^5-5×10^5 cells/ml) to assure actively dividing cells. The next day, cells were washed twice in serum-free Opti-MEM media (Invitrogen, Catalog #51985) and cells were then plated at optimal cell density (10,000 cells/well) in 50 μl Opti-MEM media or Opti-MEM supplemented with 2%, 4% or 10% human serum (Bioreclamation, catalog #HMSRM) in 96-well white tissue culture plate (Nunc, catalog #136102).
For serum free experiment, peptidomimetic macrocycles were diluted from 2 mM stocks (100% DMSO) in sterile water to prepare 400 μM working solutions. The macrocycles and controls were diluted 10-fold first and then serially two-fold diluted in Opti-MEM in dosing plates to provide concentrations of between 1.2 and 40 μM. 50 μL of each dilution was then added to the appropriate wells of the test plate to achieve final concentrations of the polypeptides equal to between 0.6 to 20 μM. For studies using Opti-MEM supplemented with human serum (Bioreclamation, catalog #HMSRM), peptidomimetic macrocycles were diluted from 10 mM stocks (100% DMSO) in sterile water to prepare 2 mM working solutions. The peptide macrocycles and controls were diluted 10-fold first and then serially two-fold diluted in Opti-MEM in the presence of 2%, 4% or 10% of human serum to provide concentrations of the polypeptides equal to between 6.25 to 200 μM in dosing plates. 50 μL of each dilution was then added to the appropriate welts of the test plate to achieve final concentrations of the polypeptides equal to between 3.125 to 100 μM. Controls included wells without polypeptides containing the same concentration of DMSO as the wells containing the macrocycles, wells containing 0.1% Triton X-100 and wells containing no cells. Plates were incubated for 48 hours at 37° C. in humidified 5% CO2 atmosphere.
At the end of the incubation period, CellTiter-Glo assay was performed according to manufacturer's instructions (Promega, catalog #G7573) and luminescence was measured using Synergy HT Plate reader (BioTek).
The following macrocycles derived from the human MAML peptide sequences were tested in cell viability assays with the MOLT-4 tumor cell line: […]
Turning to `CC[C@H](C)[C@H](NC(=O)[C@H](CCCNC(=N)N)NC(=O)[C@H](CCCNC(=N)N)NC(=O)[C@H](CCCNC(=N)N)NC(=O)[C@H](CC(C)C)NC(=O)[C@H](CCCNC(=N)N)NC(=O)[C@H](CCC(=O)O)NC(C)=O)C(=O)N[C@@H](CCC(=O)O)C(=O)N[C@@H](CC(C)C)C(=O)N[C@@H](CS)C(=O)N[C@@H](CCCNC(=N)N)C(=O)N[C@@H](CCCNC(=N)N)C(=O)N[C@@H](Cc1c[nH]cn1)C(=O)N[C@@H](Cc1c[nH]cn1)C(=O)N[C@@H](CO)C(=O)N[C@H](C(N)=O)[C@@H](C)O` [Compound 2, Ac-ERLRRRIELCRRHHST-NH2] (Ac-ERLRRRIELCRRHHST-NH2), the EC50 was more than 20 µM.
The value for `CC[C@H](C)[C@H](NC(=O)[C@H](CCCNC(=N)N)NC(=O)[C@H](CCCNC(=N)N)NC(=O)[C@H](CCCNC(=N)N)NC(=O)[C@H](CC(C)C)NC(=O)[C@H](C)NC(=O)[C@H](CCC(=O)O)NC(C)=O)C(=O)N[C@@]1(C)CCCC=CCCC[C@@](C)(C(=O)N[C@@H](Cc2c[nH]cn2)C(=O)N[C@@H](Cc2c[nH]cn2)C(=O)N[C@@H](CO)C(=O)N[C@H](C(N)=O)[C@@H](C)O)NC(=O)[C@H](C)NC(=O)[C@H](CS)NC(=O)[C@H](CC(C)C)NC1=O` [Compound 7, Ac-EALRRRI$LCA$HHST-NH2] (Ac-EALRRRI[S5]LCA[S5]HHST-NH2; staple 8-12) was 11.5 µM; that for `CC[C@H](C)[C@@H]1NC(=O)[C@H](CCCNC(=N)N)NC(=O)[C@H](CCCNC(=N)N)NC(=O)[C@@](C)(NC(=O)[C@H](CC(C)C)NC(=O)[C@H](CCC(=O)O)NC(=O)[C@H](CCCNC(=N)N)NC(C)=O)CCCC=CCCC[C@@](C)(C(=O)N[C@@H](CC(C)C)C(=O)N[C@@H](CS)C(=O)N[C@@H](CCCNC(=N)N)C(=O)N[C@@H](CCCNC(=N)N)C(=O)N[C@@H](Cc2c[nH]cn2)C(=O)N[C@@H](Cc2c[nH]cn2)C(=O)N[C@@H](CO)C(=O)N[C@H](C(N)=O)[C@@H](C)O)NC1=O` [Compound 8, Ac-REL$RRI$LCRRHHST-NH2] (Ac-REL[S5]RRI[S5]LCRRHHST-NH2; staple 4-8) was 11.5 µM; that for `CC[C@H](C)[C@H](NC(=O)[C@H](CCCNC(=N)N)NC(=O)[C@H](CCCNC(=N)N)NC(=O)[C@H](CCCNC(=N)N)NC(=O)[C@H](CC(C)C)NC(=O)[C@H](CCCNC(=N)N)NC(=O)[C@H](CCC(=O)O)NC(C)=O)C(=O)N[C@@]1(C)CCCC=CCCC[C@@](C)(C(=O)N[C@@H](Cc2c[nH]cn2)C(=O)N[C@@H](Cc2c[nH]cn2)C(=O)N[C@@H](CO)C(=O)N[C@H](C(=O)N[C@@H](CS)C(=O)N[C@@H](CCC(=O)O)C(=O)N[C@@H](C)C(=O)N[C@@H](CCCNC(=N)N)C(=O)N[C@@H](Cc2ccc(O)cc2)C(=O)N[C@@H](CCC(=O)O)C(=O)N[C@@H](C)C(=O)N[C@H](C(N)=O)C(C)C)[C@@H](C)O)NC(=O)[C@H](CCCNC(=N)N)NC(=O)[C@H](CS)NC(=O)[C@H](CC(C)C)NC1=O` [Compound 15, Ac-ERLRRRI$LCR$HHSTCEARYEAV-NH2] (Ac-ERLRRRI[S5]LCR[S5]HHSTCEARYEAV-NH2; staple 8-12) was 2.2 µM.
The value for `CC[C@H](C)[C@@H]1NC(=O)[C@@](C)(NC(=O)[C@H](CCCNC(=N)N)NC(=O)[C@H](CCCNC(=N)N)NC(=O)[C@H](CC(C)C)NC(=O)[C@H](CCCNC(=N)N)NC(=O)[C@H](CCC(=O)O)NC(C)=O)CCCC=CCCC[C@@](C)(C(=O)N[C@@H](CCCNC(=N)N)C(=O)N[C@@H](CCCNC(=N)N)C(=O)N[C@@H](Cc2c[nH]cn2)C(=O)N[C@@H](Cc2c[nH]cn2)C(=O)N[C@@H](CO)C(=O)N[C@H](C(N)=O)[C@@H](C)O)NC(=O)[C@H](CC(C)C)NC(=O)[C@H](CCC(=O)O)NC1=O` [Compound 16, Ac-ERLRR$IEL$RRHHST-NH2] (Ac-ERLRR[S5]IEL[S5]RRHHST-NH2; staple 6-10) was 11.7 µM; that for `CC[C@H](C)[C@H](NC(=O)[C@H](CCCNC(=N)N)NC(=O)[C@H](CCCNC(=N)N)NC(C)=O)C(=O)N[C@@H](CCC(=O)O)C(=O)N[C@@H](CC(C)C)C(=O)N[C@@H](C)C(=O)N[C@@H](CCCNC(=N)N)C(=O)N[C@@H](CCCNC(=N)N)C(=O)N[C@@H](Cc1c[nH]cn1)C(=O)N[C@@H](Cc1c[nH]cn1)C(=O)N[C@@]1(C)CCCC=CCCC[C@@](C)(C(=O)N[C@@H](CCCNC(=N)N)C(=O)N[C@@H](Cc2ccc(O)cc2)C(=O)N[C@@H](CCC(=O)O)C(=O)N[C@@H](C)C(=O)N[C@H](C(N)=O)C(C)C)NC(=O)[C@H](CCC(=O)O)NC(=O)[C@H](C)NC(=O)[C@H]([C@@H](C)O)NC1=O` [Compound 17, Ac-RRIELARRHH$TAE$RYEAV-NH2] (Ac-RRIELARRHH[S5]TAE[S5]RYEAV-NH2; staple 11-15) was more than 20 µM.
Consider `CC[C@H](C)[C@H](NC(=O)[C@H](CCCNC(=N)N)NC(=O)[C@H](CCCNC(=N)N)NC(C)=O)C(=O)N[C@@H](CCC(=O)O)C(=O)N[C@@H](CC(C)C)C(=O)N[C@@H](C)C(=O)N[C@@H](CCCNC(=N)N)C(=O)N[C@@H](CCCNC(=N)N)C(=O)N[C@@]1(C)CCCC=CCCC[C@@](C)(C(=O)N[C@@H](CCC(=O)O)C(=O)N[C@@H](C)C(=O)N[C@@H](CCCNC(=N)N)C(=O)N[C@@H](Cc2ccc(O)cc2)C(=O)N[C@@H](CCC(=O)O)C(=O)N[C@@H](C)C(=O)N[C@H](C(N)=O)C(C)C)NC(=O)[C@H]([C@@H](C)O)NC(=O)[C@H](CO)NC(=O)[C@H](Cc2c[nH]cn2)NC1=O` [Compound 18, Ac-RRIELARR$HST$EARYEAV-NH2] (Ac-RRIELARR[S5]HST[S5]EARYEAV-NH2; staple 9-13), for which the EC50 was more than 20 µM.
The value for `CC[C@H](C)[C@H](NC(=O)[C@H](CCCNC(=N)N)NC(=O)[C@H](CCCNC(=N)N)NC(=O)[C@H](CCCNC(=N)N)NC(=O)[C@H](CC(C)C)NC(=O)[C@H](C)NC(C)=O)C(=O)N[C@@]1(C)CCCC=CCCC[C@@](C)(C(=O)N[C@@H](Cc2c[nH]cn2)C(=O)N[C@@H](Cc2c[nH]cn2)C(=O)N[C@@H](CO)C(=O)N[C@H](C(N)=O)[C@@H](C)O)NC(=O)[C@H](C)NC(=O)[C@H](C)NC(=O)[C@H](CC(C)C)NC1=O` [Compound 20, Ac-ALRRRI$LAA$HHST-NH2] (Ac-ALRRRI[S5]LAA[S5]HHST-NH2; staple 7-11) was not below 24.4 µM; that for `CC[C@H](C)[C@H](NC(=O)[C@H](CCCNC(=N)N)NC(=O)[C@H](CCCNC(=N)N)NC(=O)[C@H](CCCNC(=N)N)NC(=O)[C@H](CC(C)C)NC(=O)[C@H](C)NC(C)=O)C(=O)N[C@@]1(C)CCCC=CCCC[C@@](C)(C(=O)N[C@@H](Cc2c[nH]cn2)C(=O)N[C@@H](Cc2c[nH]cn2)C(=O)N[C@@H](CO)C(=O)N[C@H](C(N)=O)[C@@H](C)O)NC(=O)[C@H](C)NC(=O)[C@H](CO)NC(=O)[C@H](CC(C)C)NC1=O` [Compound 21, Ac-ALRRRI$LSA$HHST-NH2] (Ac-ALRRRI[S5]LSA[S5]HHST-NH2; staple 7-11) was more than 20 µM.
The value for `CC[C@H](C)[C@H](NC(=O)[C@H](CCCNC(=N)N)NC(=O)[C@H](CCCNC(=N)N)NC(=O)[C@H](CCCNC(=N)N)NC(=O)[C@H](CC(C)C)NC(=O)[C@H](CCCNC(=N)N)NC(=O)[C@H](CCC(=O)O)NC(C)=O)C(=O)N[C@@H](CCC(=O)O)C(=O)N[C@@H](CC(C)C)C(=O)N[C@@H](C)C(=O)N[C@@H](C)C(=O)N[C@@H](CCCNC(=N)N)C(=O)N[C@@H](Cc1c[nH]cn1)C(=O)N[C@@H](Cc1c[nH]cn1)C(=O)N[C@@]1(C)CCCC=CCCC[C@@](C)(C(=O)N[C@@H](CCCNC(=N)N)C(=O)N[C@@H](Cc2ccc(O)cc2)C(=O)N[C@@H](CCC(=O)O)C(=O)N[C@@H](C)C(=O)N[C@H](C(N)=O)C(C)C)NC(=O)[C@H](CCC(=O)O)NC(=O)[C@H](C)NC(=O)[C@H]([C@@H](C)O)NC1=O` [Compound 22, Ac-ERLRRRIELAARHH$TAE$RYEAV-NH2] (Ac-ERLRRRIELAARHH[S5]TAE[S5]RYEAV-NH2; staple 15-19) was more than 20 µM; that for `CC[C@H](C)[C@H](NC(=O)[C@H](CCCNC(=N)N)NC(=O)[C@H](CCCNC(=N)N)NC(=O)[C@H](CCCNC(=N)N)NC(=O)[C@H](CC(C)C)NC(=O)[C@H](C)NC(C)=O)C(=O)N[C@@H](CCC(=O)O)C(=O)N[C@@H](CC(C)C)C(=O)N[C@@H](C)C(=O)N[C@@H](C)C(=O)N[C@@H](CCCNC(=N)N)C(=O)N[C@@H](Cc1c[nH]cn1)C(=O)N[C@@H](Cc1c[nH]cn1)C(=O)N[C@@]1(C)CCCC=CCCC[C@@](C)(C(=O)N[C@@H](CCCNC(=N)N)C(=O)N[C@@H](Cc2ccc(O)cc2)C(=O)N[C@@H](CCC(=O)O)C(=O)N[C@@H](C)C(=O)N[C@H](C(N)=O)C(C)C)NC(=O)[C@H](CCC(=O)O)NC(=O)[C@H](C)NC(=O)[C@H]([C@@H](C)O)NC1=O` [Compound 24, Ac-ALRRRIELAARHH$TAE$RYEAV-NH2] (Ac-ALRRRIELAARHH[S5]TAE[S5]RYEAV-NH2; staple 14-18) was more than 20 µM.

Usually EC50 stands for the concentration giving half of the maximal effect.

For the origin of these results see patent publication US20120115793A1, “PEPTIDOMIMETIC MACROCYCLES” (Alleron Therapeutics, Inc, priority 2008, published 2012).
